Here are results for 17 compounds from patent publication EP4803147A2.

Each structure is given as a SMILES string. Read-outs that look alike come from different tables or passages of the source.

Consider `CCO[C@@H]1c2nc(cs2)-c2ccc3c(c2)c(c(-c2cc(C4=CCN(C(=O)OCc5ccccc5)CC4)cnc2[C@H](C)OC)n3CC)CC(C)(C)COC(=O)[C@@H]2CCCN(N2)C(=O)[C@H]1NC(=O)OC(C)(C)C`, for which the ring closure, yield of all isomers (from CCO[C@H](c1nc(Br)cs1)[C@H](NC(=O)OC(C)(C)C)C(=O)N1CCC[C@@H](C(=O)OCC(C)(C)Cc2c(-c3cc(C4=CCN(C(=O)OCc5ccccc5)CC4)cnc3[C@H](C)OC)n(CC)c3ccc(B4OC(C)(C)C(C)(C)O4)cc23)N1, cc_pd bond, Pd(DtBPF)Cl2, K3PO4, toluene, 40.7 mM, 70.0 °C, 1.0 h) stood at 39%.

Turning to `CCO[C@@H]1c2nc(cs2)-c2ccc3c(c2)c(c(-c2cc(C4=CC5COCC(C4)N5C(=O)OCC4c5ccccc5-c5ccccc54)cnc2[C@H](C)OC)n3CC)CC(C)(C)COC(=O)[C@@H]2CCCN(N2)C(=O)[C@H]1NC(=O)OC(C)(C)C`, the ring closure, yield of all isomers (from CCO[C@H](c1nc(Br)cs1)[C@H](NC(=O)OC(C)(C)C)C(=O)N1CCC[C@@H](C(=O)OCC(C)(C)Cc2c(-c3cc(C4=CC5COCC(C4)N5C(=O)OCC4c5ccccc5-c5ccccc54)cnc3[C@H](C)OC)n(CC)c3ccc(B4OC(C)(C)C(C)(C)O4)cc23)N1, cc_pd bond, Pd(dppf)Cl2.DCM, toluene, 205.0 mM, 80.0 °C, 3.0 h) came to 49%.

Turning to `CCO[C@@H]1c2nc(cs2)-c2ccc3c(c2)c(c(-c2cc(N4CCN(C(=O)OCc5ccccc5)CC4)cnc2[C@H](C)OC)n3CCOC(C)C)CC2(CC2)COC(=O)[C@@H]2CCCN(N2)C(=O)[C@H]1NC(=O)OC(C)(C)C`, the ring closure, yield of all isomers (from CCO[C@H](c1nc(Br)cs1)[C@H](NC(=O)OC(C)(C)C)C(=O)N1CCC[C@@H](C(=O)OCC2(Cc3c(-c4cc(N5CCN(C(=O)OCc6ccccc6)CC5)cnc4[C@H](C)OC)n(CCOC(C)C)c4ccc(B5OC(C)(C)C(C)(C)O5)cc34)CC2)N1, cc_pd bond, XPhos-Pd-G3/XPhos, K3PO4, toluene, 28.0 mM, 65.0 °C, 2.0 h) was 27%.

In the case of `CCn1c(-c2cccnc2[C@H](C)OC)c2c3cc(ccc31)-c1csc(n1)C[C@H](NC(=O)OC(C)(C)C)C(=O)N1CCC[C@H](N1)C(=O)OCC(C)(C)C2`, the ring closure, yield of all isomers (from CCn1c(-c2cccnc2[C@H](C)OC)c(CC(C)(C)CO)c2cc(-c3csc(C[C@H](NC(=O)OC(C)(C)C)C(=O)N4CCC[C@@H](C(=O)O)N4)n3)ccc21, ester bond, EDCI/HOBt/DIPEA, DCM, 12.65 mM, 25.0 °C, 16.0 h) stood at 81%.

Turning to `CCn1c(-c2cccnc2[C@H](C)OC)c2c3cc(ccc31)-c1csc(n1)[C@@H](OCC1=CCN(C(=O)OCc3ccccc3)CC1)[C@H](NC(=O)OC(C)(C)C)C(=O)N1CCC[C@H](N1)C(=O)OCC(C)(C)C2`, the ring closure, yield of all isomers (from CCn1c(-c2cccnc2[C@H](C)OC)c(CC(C)(C)COC(=O)[C@@H]2CCCN(C(=O)[C@@H](NC(=O)OC(C)(C)C)[C@H](OCC3=CCN(C(=O)OCc4ccccc4)CC3)c3nc(Br)cs3)N2)c2cc(B3OC(C)(C)C(C)(C)O3)ccc21, cc_pd bond, Pd(dtbpf)Cl2, K3PO4, toluene, 60.0 °C, 2.0 h) was found to be 32%.

As for `CCn1c(-c2cc(N3CCN(C(=O)OCc4ccccc4)CC3)cnc2[C@H](C)OC)c2c3cc(ccc31)-c1csc(n1)C[C@H](NC(=O)OC(C)(C)C)C(=O)N1CCC[C@H](N1)C(=O)OCC(C)(C)C2`, for the setting “from CCn1c(-c2cc(N3CCN(C(=O)OCc4ccccc4)CC3)cnc2[C@H](C)OC)c(CC(C)(C)CO)c2cc(-c3csc(C[C@H](NC(=O)OC(C)(C)C)C(=O)N4CCC[C@@H](C(=O)O)N4)n3)ccc21, ester bond, EDCI/HOBt/DIPEA, MeCN, 10.34 mM, 25.0 °C, 16.0 h”, the ring closure, yield of all isomers is 54.8%.

For `CCn1c(-c2cccnc2[C@H](C)OC)c2c3cc(ccc31)-c1csc(n1)[C@@H](OCC(F)F)[C@H](NC(=O)OC(C)(C)C)C(=O)N1CCC[C@H](N1)C(=O)OCC(C)(C)C2`, where the note is “from CCn1c(-c2cccnc2[C@H](C)OC)c(CC(C)(C)COC(=O)[C@@H]2CCCN(C(=O)[C@@H](NC(=O)OC(C)(C)C)[C@H](OCC(F)F)c3nc(Br)cs3)N2)c2cc(B3OC(C)(C)C(C)(C)O3)ccc21, cc_pd bond, Pd(DtBPF)Cl2, K3PO4, toluene, 10.0 mM, 60.0 °C, 1.0 h”, the ring closure, yield of all isomers amounted to 59%.

As to `CCn1c(-c2cccnc2[C@H](C)OC)c2c3cc(ccc31)-c1csc(n1)C(N(C)C)[C@H](NC(=O)OCC1c3ccccc3-c3ccccc31)C(=O)N1CCC[C@H](N1)C(=O)OCC(C)(C)C2` (some centres unmarked), the ring closure, yield of all isomers (from CCn1c(-c2cccnc2[C@H](C)OC)c(CC(C)(C)COC(=O)[C@@H]2CCCN(C(=O)[C@@H](NC(=O)OCC3c4ccccc4-c4ccccc43)C(c3nc(Br)cs3)N(C)C)N2)c2cc(B3OC(C)(C)C(C)(C)O3)ccc21, cc_pd bond, Pd(dtbpf)Cl2, toluene, 27.3 mM, 60.0 °C, 1.0 h) came out at 19%.

`CCn1c(-c2cccnc2[C@H](C)OC)c2c3cc(ccc31)C1=CC(O[Si](c3ccccc3)(c3ccccc3)C(C)(C)C)CN(C1)C[C@H](NC(=O)OC(C)(C)C)C(=O)N1CCC[C@H](N1)C(=O)OCC(C)(C)C2` (some centres unmarked): the ring closure, yield of all isomers (from CCn1c(-c2cccnc2[C@H](C)OC)c(CC(C)(C)COC(=O)[C@@H]2CCCN(C(=O)[C@H](CN3CC(Br)=CC(O[Si](c4ccccc4)(c4ccccc4)C(C)(C)C)C3)NC(=O)OC(C)(C)C)N2)c2cc(B3OC(C)(C)C(C)(C)O3)ccc21, cc_pd bond, Pd(dppf)Cl2, K2CO3, toluene, 20.0 mM, 65.0 °C, 2.0 h) is 42%.

Turning to `CC1(C)COC(=O)[C@@H]2CCCN(N2)C(=O)[C@@H](NC(=O)OC(C)(C)C)Cc2nc(cs2)-c2ccc3c(c2)c(c(-c2ccnc(N4CCN(C(=O)OCc5ccccc5)CC4)c2)n3C(C)(C)C#N)C1`, where the note is “from CC(C)(CO)Cc1c(-c2ccnc(N3CCN(C(=O)OCc4ccccc4)CC3)c2)n(C(C)(C)C#N)c2ccc(-c3csc(C[C@H](NC(=O)OC(C)(C)C)C(=O)N4CCC[C@@H](C(=O)O)N4)n3)cc12, ester bond, EDCI/HOBT/DIPEA, DCM, 1.05 mM, 25.0 °C, 16.0 h”, the ring closure, yield of all isomers turned out to be 52%.

With `CO[C@@H](C)c1ncccc1-c1c2c3cc(ccc3n1CCOC1CCOCC1)-c1csc(n1)C[C@H](NC(=O)OC(C)(C)C)C(=O)N1CCC[C@H](N1)C(=O)OCC(C)(C)C2`, the ring closure, yield of all isomers (from CO[C@@H](C)c1ncccc1-c1c(CC(C)(C)CO)c2cc(-c3csc(C[C@H](NC(=O)OC(C)(C)C)C(=O)N4CCC[C@@H](C(=O)O)N4)n3)ccc2n1CCOC1CCOCC1, ester bond, EDCI/HOBt, DIPEA, DCM, 7.0 mM, 25.0 °C, 16.0 h) was 68%.

In turn, `CCO[C@@H]1c2nc(cs2)-c2ccc3c(c2)c(c(-c2cc([C@@H]4C[C@H]5COC[C@@H](C4)N5C(=O)OCC4c5ccccc5-c5ccccc54)cnc2[C@H](C)OC)n3CC)CC(C)(C)COC(=O)[C@@H]2CCCN(N2)C(=O)[C@H]1NC(=O)OC(C)(C)C` registered a ring closure, yield of all isomers (from CCO[C@H](c1nc(Br)cs1)[C@H](NC(=O)OC(C)(C)C)C(=O)N1CCC[C@@H](C(=O)OCC(C)(C)Cc2c(-c3cc([C@@H]4C[C@H]5COC[C@@H](C4)N5C(=O)OCC4c5ccccc5-c5ccccc54)cnc3[C@H](C)OC)n(CC)c3ccc(B4OC(C)(C)C(C)(C)O4)cc23)N1, cc_pd bond, Pd(DtBPF)Cl2, toluene, 10.4 mM, 80.0 °C, 3.0 h) of 65%.

The compound `CCO[C@@H]1c2nc(cs2)-c2ccc3c(c2)c(c(-c2cccnc2[C@H](C)OC)n3CC)CC(C)(C)COC(=O)[C@@H]2CCCN(N2)C(=O)[C@H]1NC(=O)OC(C)(C)C` returned a ring closure, yield of all isomers (from CCO[C@H](c1nc(Br)cs1)[C@H](NC(=O)OC(C)(C)C)C(=O)N1CCC[C@@H](C(=O)OCC(C)(C)Cc2c(-c3cccnc3[C@H](C)OC)n(CC)c3ccc(B4OC(C)(C)C(C)(C)O4)cc23)N1, cc_pd bond, Pd(DTBpf)Cl2/K3PO4, toluene, 26.7 mM, 60.0 °C, 1.0 h) of 31%.

As to `CCn1c(-c2cccnc2[C@H](C)OC)c2c3cc(ccc31)C1=CC[C@H](COC)N(C1)C[C@H](NC(=O)OC(C)(C)C)C(=O)N1CCC[C@H](N1)C(=O)OCC(C)(C)C2`, under “from CCn1c(-c2cccnc2[C@H](C)OC)c(CC(C)(C)COC(=O)[C@@H]2CCCN(C(=O)[C@H](CN3CC(Br)=CC[C@@H]3COC)NC(=O)OC(C)(C)C)N2)c2cc(B3OC(C)(C)C(C)(C)O3)ccc21, cc_pd bond, Pd(dppf)Cl2, K3PO4, toluene, 116.0 mM, 70.0 °C, 3.0 h”, the ring closure, yield of all isomers worked out at 30%.

`CC1(C)COC(=O)[C@@H]2CCCN(N2)C(=O)[C@@H](NC(=O)OC(C)(C)C)Cc2nc(cs2)-c2ccc3[nH]c(I)c(c3c2)C1` showed a ring closure, yield of all isomers (from CC(C)(CO)Cc1c(I)[nH]c2ccc(-c3csc(C[C@H](NC(=O)OC(C)(C)C)C(=O)N4CCC[C@@H](C(=O)O)N4)n3)cc12, ester bond, EDCI/HOBt/DIPEA, DCM, 17.57 mM, 25.0 °C, 16.0 h) of 45.9%.

`CCO[C@@H]1c2nc(cs2)-c2ccc3c(c2)c(c(-c2cc(N4CCN(C(=O)OCc5ccccc5)CC4)cnc2[C@H](C)OC)n3CCOC(C)C)CC(C)(C)COC(=O)[C@@H]2CCCN(N2)C(=O)[C@H]1NC(=O)OC(C)(C)C` returned a ring closure, yield of all isomers (from CCO[C@H](c1nc(Br)cs1)[C@H](NC(=O)OC(C)(C)C)C(=O)N1CCC[C@@H](C(=O)OCC(C)(C)Cc2c(-c3cc(N4CCN(C(=O)OCc5ccccc5)CC4)cnc3[C@H](C)OC)n(CCOC(C)C)c3ccc(B4OC(C)(C)C(C)(C)O4)cc23)N1, cc_pd bond, Pd(dtbpf)Cl2, K3PO4, toluene, 16.0 mM, 65.0 °C, 2.0 h) of 44%.

For `CCn1c(-c2cccnc2[C@H](C)OC)c2c3cc(ccc31)-c1csc(n1)[C@@H](OCCN(C)C)[C@H](NC(=O)OC(C)(C)C)C(=O)N1CCC[C@H](N1)C(=O)OCC(C)(C)C2`, the ring closure, yield of all isomers (from CCn1c(-c2cccnc2[C@H](C)OC)c(CC(C)(C)COC(=O)[C@@H]2CCCN(C(=O)[C@@H](NC(=O)OC(C)(C)C)[C@H](OCCN(C)C)c3nc(Br)cs3)N2)c2cc(B3OC(C)(C)C(C)(C)O3)ccc21, cc_pd bond, Pd(dtbpf)Cl2, K3PO4, toluene, 57.0 mM, 60.0 °C, 4.0 h) came out at 50%.
